{"source": "ChEMBL document CHEMBL3862020", "about": "“A fluorescent analogue of tauroursodeoxycholic acid reduces ER stress and is cytoprotective” (Bioorg Med Chem Lett, 2016)", "key": {"Huh-7 [1]": {"system": "Huh-7", "assay": "Cytoprotective activity against tunicamycin-induced ER stress in human HuH7 cells assessed as increase in XBPu mRNA levels after 6 hrs", "type": "functional, cell-based"}, "[2]": {"assay": "Cytotoxicity against human HuH7 cells assessed as reduction in cell viability by MTT assay", "type": "toxicity, cell-based", "settings": "huh-7"}, "Huh-7 [3]": {"system": "Huh-7", "assay": "Cytoprotective activity against DCA-induced ER stress in human HuH7 cells assessed as inhibition of XBPs mRNA levels after 6 hrs", "type": "functional, cell-based"}, "Huh-7 [4]": {"system": "Huh-7", "assay": "Cytoprotective activity against tunicamycin-induced ER stress in human HuH7 cells assessed as inhibition of BIP/GRP78 mRNA levels after 6 hrs", "type": "functional, cell-based"}, "[5]": {"assay": "Cytotoxicity against HEK293 cells assessed as reduction in cell viability by MTT assay", "type": "toxicity, cell-based", "settings": "human"}, "Huh-7 [6]": {"system": "Huh-7", "assay": "Cytoprotective activity against tunicamycin-induced ER stress in human HuH7 cells assessed as inhibition of CHOP mRNA levels after 6 hrs", "type": "functional, cell-based"}, "Huh-7 [7]": {"system": "Huh-7", "assay": "Cytoprotective activity against tunicamycin-induced ER stress in human HuH7 cells assessed as reduction in XBPs/XBPu ratio after 6 hrs", "type": "functional, cell-based"}, "Huh-7 [8]": {"system": "Huh-7", "assay": "Cytoprotective activity against DCA-induced cell death in human HuH7 cells assessed as increase in cell viability at 1 mM preincubated with cells followed by DCA addition measured after 24 hrs by MTT/INCELL assay", "type": "functional, cell-based"}, "Huh-7 [9]": {"system": "Huh-7", "assay": "Cytoprotective activity against tunicamycin-induced ER stress in human HuH7 cells assessed as inhibition of XBPs mRNA levels after 6 hrs", "type": "functional, cell-based"}, "Huh-7 [10]": {"system": "Huh-7", "assay": "Cytoprotective activity against DCA-induced ER stress in human HuH7 cells assessed as increase in XBPu mRNA levels after 6 hrs", "type": "functional, cell-based"}, "Huh-7 [11]": {"system": "Huh-7", "assay": "Cytoprotective activity against tunicamycin-induced ER stress in human HuH7 cells assessed as inhibition of BIP/GRP78 mRNA levels at 1mM after 6 hrs", "type": "functional, cell-based"}, "Huh-7 [12]": {"system": "Huh-7", "assay": "Cytoprotective activity against DCA-induced ER stress in human HuH7 cells assessed as inhibition of […] mRNA levels after 6 hrs", "type": "functional, cell-based"}, "Huh-7 [13]": {"system": "Huh-7", "assay": "Cytoprotective activity against DCA-induced cell death in human HuH7 cells assessed as increase in cell viability at 500 uM preincubated with cells followed by DCA addition measured after 24 hrs by MTT/INCELL assay", "type": "functional, cell-based"}}, "note": "The source made the active and inactive calls. The calls are words filed in the database; no cut-off is given here."}
{"smiles": "C[C@H](CCC(=O)NCCS(=O)(=O)O)[C@H]1CC[C@H]2[C@@H]3[C@@H](O)C[C@@H]4C[C@H](O)CC[C@]4(C)[C@H]3CC[C@]12C", "note": "[TAURURSODIOL]", "values": [{"measurement": "Activity", "setting": "Huh-7 [1]", "result": "Active"}, {"measurement": "Activity", "setting": "[2]", "result": "Non-Toxic"}, {"measurement": "inhibition", "setting": "Huh-7 [3]", "result": "Active"}, {"measurement": "inhibition", "setting": "Huh-7 [4]", "result": "Active"}, {"measurement": "Activity", "setting": "[5]", "result": "Non-Toxic"}, {"measurement": "inhibition", "setting": "Huh-7 [6]", "result": "Active"}, {"measurement": "Activity", "setting": "Huh-7 [7]", "result": "Active"}, {"measurement": "Activity", "setting": "Huh-7 [8]", "result": "Active"}, {"measurement": "inhibition", "setting": "Huh-7 [9]", "result": "Active"}, {"measurement": "Activity", "setting": "Huh-7 [10]", "result": "Active"}]}
{"smiles": "C[C@H](CCC(=O)O)[C@H]1CC[C@H]2[C@@H]3[C@@H](O)C[C@@H]4C[C@H](O)CC[C@]4(C)[C@H]3CC[C@]12C", "values": [{"measurement": "inhibition", "setting": "Huh-7 [11]", "result": "Active"}]}
{"smiles": "C[C@H](CCC(=O)NCCS(=O)(=O)O)[C@H]1CC[C@H]2[C@@H]3[C@@H](O)C[C@@H]4C[C@H](NS(=O)(=O)c5cccc6c(N(C)C)cccc56)CCC4(C)[C@H]3CC[C@]12C", "note": "(single isomer, unassigned)", "values": [{"measurement": "Activity", "setting": "Huh-7 [1]", "result": "Active"}, {"measurement": "Activity", "setting": "[2]", "result": "Non-Toxic"}, {"measurement": "inhibition", "setting": "Huh-7 [3]", "result": "Active"}, {"measurement": "inhibition", "setting": "Huh-7 [4]", "result": "Active"}, {"measurement": "Activity", "setting": "[5]", "result": "Non-Toxic"}, {"measurement": "inhibition", "setting": "Huh-7 [6]", "result": "Active"}, {"measurement": "Activity", "setting": "Huh-7 [7]", "result": "Active"}, {"measurement": "inhibition", "setting": "Huh-7 [12]", "result": "Active"}, {"measurement": "inhibition", "setting": "Huh-7 [9]", "result": "Active"}, {"measurement": "Activity", "setting": "Huh-7 [13]", "result": "Active"}, {"measurement": "Activity", "setting": "Huh-7 [10]", "result": "Active"}]}
